Assay results published in ChEMBL document CHEMBL6109071, “Chemical modification for improving drug-like molecular properties of climacostol, a natural resorcinolic lipid” (Bioorg Med Chem, 2025).
Values after ≈ are worked out from the molar mass of the structure shown. Active and inactive are the calls of the source. No cut-off for these calls is given here.

Experiments:
[1] = tested on: SH-SY5Y; test: Cytotoxicity against human SH-SY5Y cells assessed as reduction in cell viability at 30 ug/ml measured after 3 hrs by MTT assay relative to control; format: functional
[2] = tested on: SH-SY5Y; test: Cytotoxicity against human SH-SY5Y cells assessed as cell death at 10 ug/ml measured after 24 hrs by MTT assay relative to control; format: functional
[3] = tested on: SH-SY5Y; test: Induction of apoptosis in human SH-SY5Y cells assessed as altered morphology of nuclear area at 10 to 30 ug/ml measured after 9 hrs by DAPI/phalloidin staining based confocal microscopy; format: functional, cell-based; details: dose 10-30 µg/ml
[4] = tested on: Euplotes aediculatus; test: Potency index, ratio of climacostol LC50 to test compound LC50 for cytotoxicity against Euplotes aediculatus clone EA-III; format: functional
[5] = tested on: SH-SY5Y; test: Induction of apoptosis in human SH-SY5Y cells assessed as altered roundness of nuclear area at 10 to 30 ug/ml measured after 9 hrs by DAPI/phalloidin staining based confocal microscopy; format: functional, cell-based; details: dose 10-30 µg/ml
[6] = tested on: Paramecium multimicronucleatum; test: Cytotoxicity against Paramecium multimicronucleatum clone TL-2 assessed as reduction in viability measured after 24 hrs; format: functional
[7] = Toxicity in Drosophila melanogaster Oregon-R assessed as DNA fragmentation in digestive tract of third instar larvae at 100 ug/ml administered through feeding measured after day 8 to 9 by TUNEL/DAPI staining based confocal microscopy; details: po, time 8-9 day, dose 100 µg/ml
[8] = tested on: Stentor polymorphus; test: Cytotoxicity against Stentor polymorphus stock GF-1 assessed as reduction in viability measured after 24 hrs; format: functional
[9] = tested on: Stentor polymorphus; test: Cytotoxicity against Stentor polymorphus stock GF-1 assessed as reduction in viability measured after 1 hr; format: functional
[10] = tested on: Paramecium tetraurelia; test: Cytotoxicity against Paramecium tetraurelia stock 51 assessed as reduction in viability measured after 1 hr; format: functional
[11] = tested on: Blepharisma japonicum; test: Cytotoxicity against Blepharisma japonicum R1072 assessed as reduction in viability measured after 1 hr; format: functional
[12] = tested on: Paramecium multimicronucleatum; test: Potency index, ratio of climacostol LC50 to test compound LC50 for cytotoxicity against Paramecium multimicronucleatum clone TL-2; format: functional
[13] = tested on: Paramecium tetraurelia; test: Potency index, ratio of climacostol LC50 to test compound LC50 for cytotoxicity against Paramecium tetraurelia stock 51; format: functional
[14] = tested on: Euplotes aediculatus; test: Cytotoxicity against Euplotes aediculatus clone EA-III assessed as reduction in viability measured after 1 hr; format: functional
[15] = Toxicity in Drosophila melanogaster Oregon-R assessed as increase in cleaved caspase-3 in the cytoplasm of midgut cells of third instar larvae at 100 ug/ml administered through feeding measured after day 8 to 9 by DAPI immunostaining based confocal microscopy; format: tissue-based; details: po, time 8-9 day, dose 100 µg/ml
[16] = Toxicity in Drosophila melanogaster Oregon-R assessed as change in larvae development by measuring reduction in developed third instar larvae at 100 ug/ml administered through feeding measured twice daily on day 8 to 9 post-treatment relative to control; design: scale not given: the % may be the effect or the level left; details: po, at 100 µg/mL, time 8-9 day
[17] = tested on: SH-SY5Y; test: Induction of apoptosis in human SH-SY5Y cells assessed as increase in caspase-3 expression at 10 to 30 ug/ml measured after 9 hrs by immunostaining based confocal microscopy; format: functional, cell-based; details: dose 10-30 µg/ml
[18] = tested on: SH-SY5Y; test: Cytotoxicity against human SH-SY5Y cells assessed as reduction in cell viability measured after 24 hrs by MTT assay; format: functional, cell-based
[19] = tested on: Spirostomum ambiguum; test: Cytotoxicity against Spirostomum ambiguum stock Pol-5 assessed as reduction in viability measured after 1 hr; format: functional
[20] = tested on: Euplotes aediculatus; test: Cytotoxicity against Euplotes aediculatus clone EA-III assessed as reduction in viability measured after 24 hrs; format: functional
[21] = tested on: SH-SY5Y; test: Induction of apoptosis in human SH-SY5Y cells assessed as chromatin condensation at 10 to 30 ug/ml measured after 9 hrs by DAPI/phalloidin staining based confocal microscopy; format: functional, cell-based; details: dose 10-30 µg/ml
[22] = tested on: Blepharisma japonicum; test: Cytotoxicity against Blepharisma japonicum R1072 assessed as reduction in viability measured after 24 hrs; format: functional
[23] = tested on: Paramecium tetraurelia; test: Cytotoxicity against Paramecium tetraurelia stock 51 assessed as reduction in viability measured after 24 hrs; format: functional
[24] = tested on: Spirostomum teres; test: Cytotoxicity against Spirostomum teres stock Pol-1 assessed as reduction in viability measured after 1 hr; format: functional
[25] = tested on: SH-SY5Y; test: Induction of apoptosis in human SH-SY5Y cells assessed as cytoplasmic shrinkage at 10 to 30 ug/ml measured after 9 hrs by DAPI/phalloidin staining based confocal microscopy; format: functional, cell-based; details: dose 10-30 µg/ml
[26] = tested on: Paramecium multimicronucleatum; test: Cytotoxicity against Paramecium multimicronucleatum clone TL-2 assessed as reduction in viability measured after 1 hr; format: functional
[27] = tested on: Spirostomum teres; test: Cytotoxicity against Spirostomum teres stock Pol-1 assessed as reduction in viability measured after 24 hrs; format: functional
[28] = tested on: SH-SY5Y; test: Cytotoxicity against human SH-SY5Y cells assessed as cell death at 30 ug/ml measured after 24 hrs by MTT assay relative to control; format: functional

Row | Structure (SMILES) | LC50 [6] [µg/mL] | LC50 [8] [µg/mL] | LC50 [9] [µg/mL] | LC50 [10] [µg/mL] | LC50 [11] [µg/mL] | LC50 [14] [µg/mL] | Activity [18] | IC50 [18] [µg/mL] | LC50 [19] [µg/mL] | LC50 [20] [µg/mL] | LC50 [22] [µg/mL] | LC50 [23] [µg/mL] | LC50 [24] [µg/mL] | LC50 [26] [µg/mL] | LC50 [27] [µg/mL] | other results
1 | CCCCCC/C=C\Cc1cc(O)cc(O)c1O | 0.13 (≈ 0.519 µM) | 0.54 (≈ 2.16 µM) | 1.24 (≈ 4.95 µM) | 0.29 (≈ 1.16 µM) | 3.97 (≈ 15.9 µM) | 0.7 (≈ 2.8 µM) | Dose-dependent-effect | 4.72 (≈ 18.9 µM) | 3.73 (≈ 14.9 µM) | 0.23 (≈ 0.919 µM) | 2.07 (≈ 8.27 µM) | 0.21 (≈ 0.839 µM) | 2.24 (≈ 8.95 µM) | 0.58 (≈ 2.32 µM) | 1.86 (≈ 7.43 µM) | Activity ([1]; dose 30 µg/ml): 90%; Emax at 10 µg/mL [2]: 90%; Activity [3]: Active; RatioLC50 [4]: 2.5; Activity [5]: Active; Activity [7]: Toxic; RatioLC50 [12]: 2.5; RatioLC50 [13]: 2.5; Activity [15]: Toxic; Activity [16]: 23%; Activity [17]: Active; Activity [21]: Active; Activity [25]: Active
2 | CCCCCC/C=C\Cc1cc(O)cc(O)c1 | 0.88 (≈ 3.76 µM) | 0.94 (≈ 4.01 µM) | 1.21 (≈ 5.16 µM) | 1.43 (≈ 6.1 µM) | 3.17 (≈ 13.5 µM) | 1.7 (≈ 7.25 µM) | Dose-dependent-effect | 12.9 (≈ 54.9 µM) | 2.03 (≈ 8.66 µM) | 0.83 (≈ 3.54 µM) | 2.04 (≈ 8.71 µM) | 0.9 (≈ 3.84 µM) | 2.04 (≈ 8.71 µM) | 1.64 (≈ 7 µM) | 1.68 (≈ 7.17 µM) | Emax at 30 µg/mL [28]: 90%; Activity ([1]; dose 30.0 µg/ml): inactive
